# Columns and labels:
# Assay type in all cases: cell-based
# Aureobasidium pullulans [1] = assay: Synergy testing of 2-way mixtures, 24 well plates; settings: A. pullulans
# Protocol: (§1) For synergism testing of the 2-way mixtures 100 ul of each fungicide were filled into the 24 well plates (8 different rates) and 800 ul of 0.3% PDA media containing the spore suspension was added (see above). Different ratios of the 2 fungicide rates were tested at the same time.
# (§2) Alternaria tenuissima, Penicillium citrinum, Stachybotrys chartarum, Aspergillus niger and Aureobasidium pullulans were separately cultivated on PDA media to […] sporulation. Spore suspensions were produced for each fungi.
# (§3) For the mixtures of different fungicides the synergism was calculated based on the Colby equation, which is described below: […]
# (§4) The fungicidal action to be expected, We, for a given combination of two fungicides can be calculated as follows (see COLBY, S. R. “Calculating synergistic and antagonistic response of herbicide combinations”. Weeds 15, pages 20-22; 1967): We=X+[Y×(100−X)/100] wherein:
# (§5) If the activity actually observed is greater than the expected value We, there is a synergistic effect.
# (§6) All rates below are expressed as mg ai/l (i.e. ppm).
# Stachybotrys chartarum [2] = assay: Synergy testing of 2-way mixtures, 24 well plates; settings: S. chartarum; rate (FDL) 0.05 mg ai/l
# Protocol: as §1, §2, §3, §4, §5, §6
# Aspergillus niger [3] = assay: Synergy testing of 2-way mixtures, 24 well plates; settings: A. niger
# Protocol: as §1, §2, §3, §4, §5, §6
# Alternaria tenuissima = assay: Liquid culture assay on 24 well plates, solo ai (EC95/MIC)
# Protocol: as §2
# (§7) Test method used: liquid culture assay on 24 well plates.
# (§8) For solo (i.e. single) ai testing the formulated fungicide (100 ul) was filled into the 24 well plates (8 different rates: 100-0.05 mg ai/l final volume as described above) and 100 ul distilled water was added. Afterwards 800 ul of 0.3% PDA media was added to the plate. The spore suspension of the specific fungi was added to this media in advance containing approx. 100.000 spores/ml. The 24 well plates were sealed and incubated at 24° C.
# (§9) Dependent on the growth properties of each organisms, the evaluation was done after 3 to 6 days, when the surface of the check well was covered with mycelium. The evaluation was performed by assessing the growth of the fungi related to the check growth. The results are expressed as % activity relative to the check (values of 0-100% growth). Afterwards the results were converted in % growth inhibition. EC95 values and also MIC (minimal inhibition concentration) values were derived for each compound.
# (§10) For each solo compound a graph was drawn of percentage inhibition against the concentration of the fungicide. […] Also the concentration that gave the minimum inhibition concentration was derived as MIC value
# Aureobasidium pullulans [4] = assay: as above
# Protocol: as §2, §7, §8, §9, §10
# Stachybotrys chartarum [5] = assay: as above
# Protocol: as §2, §7, §8, §9, §10
# Penicillium citrinum = assay: as above
# Protocol: as §2, §7, §8, §9, §10
# Aspergillus niger [6] = assay: as above
# Protocol: as §2, §7, §8, §9, §10
smiles,measurement,setting,value
N#Cc1c[nH]cc1-c1cccc2c1OC(F)(F)O2 [Fludioxonil],inh % (FDL alone),Aureobasidium pullulans [1]; rate (FDL) 0.8 mg ai/l,10%
same,inh % (FDL alone),Aureobasidium pullulans [1]; rate (FDL) 1.6 mg ai/l,10%
same,inh % (FDL alone),Aureobasidium pullulans [1]; rate (FDL) 3.1 mg ai/l,10%
same,inh % (FDL alone),Aureobasidium pullulans [1]; rate (FDL) 12.5 mg ai/l,10%
same,inh % (FDL alone),Aureobasidium pullulans [1]; rate (FDL) 50 mg ai/l,10%
same,inh % (FDL alone),Aureobasidium pullulans [1]; rate (FDL) 100 mg ai/l,10%
same,inh % (FDL alone),Stachybotrys chartarum [2],10%
same,inh % (FDL alone),Aspergillus niger [3]; rate (FDL) 0.05 mg ai/l,0%
same,inh % (FDL alone),Aspergillus niger [3]; rate (FDL) 0.2 mg ai/l,30%
same,inh % (FDL alone),Aspergillus niger [3]; rate (FDL) 0.8 mg ai/l,30%
same,inh % (FDL alone),Aspergillus niger [3]; rate (FDL) 1.6 mg ai/l,30%
same,inh % (FDL alone),Aspergillus niger [3]; rate (FDL) 3.1 mg ai/l,30%
same,inh % (FDL alone),Aspergillus niger [3]; rate (FDL) 12.5 mg ai/l,30%
same,inh % (FDL alone),Aspergillus niger [3]; rate (FDL) 50 mg ai/l,30%
same,inh % (FDL alone),Aspergillus niger [3]; rate (FDL) 100 mg ai/l,30%
same,EC95,"Alternaria tenuissima; A. tenuissima, 24° C., 3-6 days",1.3 mg ai/l
same,MIC,"Alternaria tenuissima; Alternaria tenuissima, read-out: MIC Minimal Inhibition concentration",1.6 µg/mL
same,EC95,"Aureobasidium pullulans [4]; A. pullulans, 24° C., 3-6 days",>100 mg ai/l
same,MIC,"Aureobasidium pullulans [4]; Aureobasidium pullulans, read-out: MIC Minimal Inhibition concentration",> 100 µg/mL
same,EC95,"Stachybotrys chartarum [5]; S. chartarum, 24° C., 3-6 days",0.18 mg ai/l
same,MIC,"Stachybotrys chartarum [5]; Stachybotrys chartarum, read-out: MIC Minimal Inhibition concentration",0.2 µg/mL
same,EC95,"Penicillium citrinum; P. citrinum, 24° C., 3-6 days",0.18 mg ai/l
same,MIC,"Penicillium citrinum; Penicillium citrinum, read-out: MIC Minimal Inhibition concentration",0.2 µg/mL
same,EC95,"Aspergillus niger [6]; A. niger, 24° C., 3-6 days",>100 mg ai/l
same,MIC,"Aspergillus niger [6]; Aspergillus niger, read-out: MIC Minimal Inhibition concentration",> 100 µg/mL
